Data on 14 compounds can be found in patent US8329691B2, “Amide compounds and use of the same” (Takeda Pharmaceutical Company Limited, priority 2007, dated 2012).

Structures can show the parent of a compound that is named as a salt.

The target in the first assay is T1, human renin (Homo sapiens, UniProt P00797).
T1 construct: taking the active type (67-406); made in house
T1 sequence (P00797 67-406): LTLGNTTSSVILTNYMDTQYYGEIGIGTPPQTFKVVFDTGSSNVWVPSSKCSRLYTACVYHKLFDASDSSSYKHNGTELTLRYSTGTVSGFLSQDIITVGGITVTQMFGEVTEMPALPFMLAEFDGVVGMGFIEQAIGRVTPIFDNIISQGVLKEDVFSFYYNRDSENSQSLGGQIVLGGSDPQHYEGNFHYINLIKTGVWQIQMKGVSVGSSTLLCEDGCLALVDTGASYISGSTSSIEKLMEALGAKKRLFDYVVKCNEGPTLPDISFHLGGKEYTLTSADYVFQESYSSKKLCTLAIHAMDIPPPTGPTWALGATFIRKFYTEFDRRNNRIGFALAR
Description: Measurement of renin inhibition value - B (angiotensinogen substrate, angiotensin I EIA). The note with it: 1 μM test compound, pH 7.4, 37° C., 30 min. It counts as biochemical. On the procedure: After the reaction, 0.4 ml of immobilized trypsin inhibitor (Pierce Biotechnology, Inc.) was added to remove the trypsin used in the activation by adsorption. The reaction liquid containing the active type renin was concentrated using Vivaspin 20 (molecular weight cut off 10,000, Vivascience, Inc.), and was diluted with 20 mM Tris-hydrochloric acid (pH 8.0).
(5) Purification of Angiotensinogen
After transfection of the plasmid DNA, the cells were subjected to shaking culture under the conditions of 37° C., 8% CO2 and 125 rpm for 3 days. A 600-ml aliquot of the culture medium was centrifuged at 2,000 rpm for 10 min to recover the culture supernatant containing angiotensinogen. To the culture supernatant was added ammonium sulfate (30% saturated concentration), and the mixture was thoroughly stirred and centrifuged at 8,000 rpm for 20 min. The obtained supernatant was added to TOYO Pearl butyl 650M (2×5 cm, Tosoh Corporation) equilibrated with 50 mM tris-hydrochloric acid (pH 8.0) containing 30% saturated ammonium sulfate, at a flow rate of 25 ml/min to allow adsorption. After washing with equilibration buffer, angiotensinogen was eluted by linear concentration gradient from the buffer used for equilibration to 20 mM tris-hydrochloric acid (pH 8.0). The eluate containing angiotensinogen was applied to repeated concentration and dilution using Vivaspin 20 (molecular weight cut off 10,000, Vivascience, Inc.), and the buffer was changed to 20 mM tris-hydrochloric acid (pH 8.0). The eluate was fed to a 6-ml RESOURCE Q column (Amersham Biosciences, Inc.) equilibrated with 20 mM Tris-hydrochloric acid (pH 8.0) containing 50 mM sodium chloride at a flow rate of 6 ml/min to adsorb the angiotensinogen. After washing the column with the buffer solution used in the equilibration, elution was carried out by means of a linear concentration gradient of sodium chloride from 50 mM to 400 mM. The fractions containing angiotensinogen were collected and concentrated using Vivaspin 20 (molecular weight cut off 10,000, Vivascience, Inc.) to a volume of about 2 ml.
(7) Measurement of Renin Inhibition Value—B
As a substrate for renin activity measurement, the angiotensinogen mentioned in (5) above was used. 1 μeach of the test compound (containing 100% DMSO) was added to each well of a 384-well plate (ABgene). Renin was diluted with a buffer solution for reaction (20 mM sodium phosphate (pH 7.4)) to a concentration of 57 pM, and 14 μl each of the dilution was added to each well. The dilution was left to stand at 37° C. for 10 min, and then 5 μl of each of a 6 μM solution of substrate angiotensinogen was added to each well to initiate the reaction. […] The amount of angiotensin I produced by an enzyme reaction was quantified by Enzyme immunoassay (EIA) described below.
Anti-angiotensin I antibody (Peninsula Laboratories Inc.) diluted 5,000-fold with PBS was added to each well of a 384 well black plate (Nalge Nunc International Co., Ltd.) by 25 μl, and left standing overnight at 4° C. to immobilize the antibody in the plate. The antibody solution was removed, PBS solution (100 μl) containing 1% BSA was added to each well, and the mixture was left standing at room temperature for 2 hr for blocking. The blocking solution was removed, and each well was washed 5 times with 100 μl of 0.05% Tween20-PBS. […] Then, a biotinated angiotensin I solution (AnaSpec, 15 μl) prepared to 1.6 nM with a buffer [20 mM tris-hydrochloric acid (pH 7.4), 150 mM sodium chloride, 0.01% BSA, 0.05% Tween20] was added to each well, mixed with a plate mixer and left standing at room temperature for 1 hr.
As for `COCCCNc1nc(C(C)(C)C)ncc1C(=O)N(CC(C)C)[C@@H]1CNC[C@H](C(=O)N2CCOCC2)C1.O=C(O)/C=C/C(=O)O` [Example 207, 2-tert-butyl-4-[(3-methoxypropyl)amino]-N-(2-methylpropyl)-N-[(3S,5R)-5-(morpholin-4-ylcarbonyl)piperidin-3-yl]pyrimidine-5-carboxamide monofumarate], the “human renin inhibitory activity: inhibitory activity (%) at 1 μM” value is 98%.

The assay is the same for the next values; noted with them: 1 μM test compound, pH 7.4, 37° C., 30 min, read-out: human renin inhibitory activity: inhibitory activity (%) at 1 μM.
`CNCC1CCN(C(=O)c2cnc(C(C)C)nc2NCc2ccco2)CC1` [Example 63, N-(2-furylmethyl)-2-isopropyl-5-({4-[(methylamino)methyl]piperidin-1-yl}carbonyl)pyrimidin-4-amine]: the inhibition at 1 µM is 54%.

On to `CNCC1CCN(C(=O)c2cnc(C(C)(C)C)nc2NCc2ccco2)CC1` [Example 59, 2-tert-butyl-N-(2-furylmethyl)-5-({4-[(methylamino)methyl]piperidin-1-yl}carbonyl)pyrimidin-4-amine dihydrochloride], for which the inhibition at 1 µM amounted to 86%.

Regarding `CC(C)CN(C(=O)c1cnc(C(C)(C)C)nc1NCc1ccco1)[C@@H]1CNC[C@H](C(N)=O)C1` (relative stereo) [Example 93, N-[(3R*,5S*)-5-(aminocarbonyl)piperidin-3-yl]-2-tert-butyl-4-[(2-furylmethyl)amino]-N-isobutylpyrimidine-5-carboxamide dihydrochloride], the inhibition at 1 µM came to 97%.

For `CC(C)CN(C(=O)c1cnc(C(C)(C)C)nc1NCc1ccco1)[C@@H]1CNC[C@H](C(C)(C)O)C1` (relative stereo) [Example 95, 2-tert-butyl-4-[(2-furylmethyl)amino]-N-[(3R*,5S*)-5-(1-hydroxy-1-methylethyl)piperidin-3-yl]-N-isobutylpyrimidine-5-carboxamide dihydrochloride], the inhibition at 1 µM is 97%.

In the case of `CC(C)(C)c1ncc(C(=O)N2CCC(CN)CC2)c(NCc2ccco2)n1` [Example 58, 5-{[4-(aminomethyl)piperidin-1-yl]carbonyl}-2-tert-butyl-N-(2-furylmethyl)pyrimidin-4-amine dihydrochloride], the inhibition at 1 µM is 82%.

Regarding `COCCCNc1nc(C(C)(C)C)ncc1C(=O)N(CC(C)C)[C@@H]1CNC[C@H](C(=O)OC)C1` [Example 96, methyl (3R,5S)-5-[({2-tert-butyl-4-[(3-methoxypropyl)amino]pyrimidin-5-yl}carbonyl)(isobutyl)amino]piperidine-3-carboxylate dihydrochloride], the inhibition at 1 µM was determined as 97%.

For the compound `CC(C)CN(C(=O)c1cnc(C(C)(C)C)nc1NCc1ncco1)[C@@H]1CNC[C@H](C(=O)N2CCOCC2)C1` [Example 109, 2-tert-butyl-N-(2-methylpropyl)-N-[(3S,5R)-5-(morpholin-4-ylcarbonyl)piperidin-3-yl]-4-[(1,3-oxazol-2-ylmethyl)amino]pyrimidine-5-carboxamide sulfate], the inhibition at 1 µM came out at 98%.

For `CCC1CCCCN1C(=O)c1cnc(C(C)(C)C)nc1NCc1ccco1` (centres unmarked) [Example 21, 2-tert-butyl-5-[(2-ethylpiperidin-1-yl)carbonyl]-N-(2-furylmethyl)pyrimidin-4-amine], the inhibition at 1 µM was found to be 58%.

For the compound `CC(C)CN(C(=O)c1cnc(C(C)(C)C)nc1NCc1ccco1)[C@@H]1CNC[C@H](C(N)=O)C1` [Example 132, 2-tert-butyl-N-[(3S,5R)-5-carbamoylpiperidin-3-yl]-4-[(furan-2-ylmethyl)amino]-N-(2-methylpropyl)pyrimidine-5-carboxamide dihydrochloride], the inhibition at 1 µM amounted to 98%.

Consider `COC(=O)[C@H]1CNC[C@@H](N(CC(C)C)C(=O)c2cnc(C(C)(C)C)nc2NCc2ccccc2)C1` (relative stereo) [Example 99, methyl (3R*,5S*)-5-[{[4-(benzylamino)-2-tert-butylpyrimidin-5-yl]carbonyl}(isobutyl)amino]piperidine-3-carboxylate], for which the inhibition at 1 µM came to 97%.

Take `COC(=O)[C@H]1CNC[C@@H](N(CC(C)C)C(=O)c2cnc(C(C)(C)C)nc2NCCCSC)C1` (relative stereo) [Example 98, methyl (3R*,5S*)-5-[[(2-tert-butyl-4-{[3-(methylthio)propyl]amino}pyrimidin-5-yl)carbonyl](isobutyl)amino]piperidine-3-carboxylate]: the inhibition at 1 µM came out at 97%.

`CC(C)CN(C(=O)c1cnc(C(C)(C)C)nc1NCc1ccco1)[C@@H]1CNC[C@H](C(=O)N2CCC(C)(O)CC2)C1` (relative stereo) [Example 94, 2-tert-butyl-4-[(2-furylmethyl)amino]-N-{(3R*,5S*)-5-[(4-hydroxy-4-methylpiperidin-1-yl)carbonyl]piperidin-3-yl}-N-isobutylpyrimidine-5-carboxamide dihydrochloride]: the inhibition at 1 µM is 97%.

The assay is the same for the next values; noted with them: pH 7.4, 1 μM test compound, pH 7.4, 37° C., 30 min, read-out: human renin inhibitory activity: inhibitory activity (%) at 1 μM.
As for `COCCCNc1nc(C(C)(C)C)ncc1C(=O)N(CC(C)C)[C@@H]1CNC[C@H](C(=O)N2CCOCC2)C1` [Example 97, 2-tert-butyl-4-[(3-methoxypropyl)amino]-N-(2-methylpropyl)-N-[(3S,5R)-5-(morpholin-4-ylcarbonyl)piperidin-3-yl]pyrimidine-5-carboxamide dihydrochloride], the inhibition at 1 µM is 97%.
